Measured values published in US20060134204A1, “Complexes made using low solubility drugs” (priority 2004, published 2006).

Experiment: Crystallinity of the complex by powder X-ray diffraction (XRD)
Type: physicochemical
Details: PANalytical X'Pert Pro, percent crystallinity
From the text: “Crystallinity” means the degree to which a chemical entity is present in a crystalline form. This degree can be expressed in units such as percent crystallinity. X-Ray diffraction (“XRD”) techniques can be used to determine crystallinity of substances, including inventive substances. From an XRD spectra, the percent crystallinity may be calculated as: Percent crystallinity=(sum of net intensity)/(sum of observed intensity) where the sum of net intensity=integrated area of peak intensity above the baseline, and sum of observed intensity=integrated area of total peak intensity including sum of net intensity and integrated area under baseline. Additional information about use of XRD to determine percent crystallinity may be found in R. Jenkins et al., Introduction to X-Ray Powder Diffractometry, John Wiley & Sonds, Inc. (1996). Qualitative determination of crystallinity of the complex of Example 1 was conducted with PANalytical X'Pert Pro Powder X-ray Diffraction (XRD) System. […] The crystallinity of sodium lauryl sulfate was determined to be 32%, and the crystallinity of the physical mixture was determined to be 50%.

`OCCC#Cc1nc(-c2ccc(F)cc2)c(-c2ccncc2)n1CCCc1ccccc1` [4-(4-Fluorophenyl)-2-(4-hydroxy-1-butynyl)-1-(3-phenylpropyl)-5-(4-pyridyl)imidazole] showed a crystallinity of 63%.
In the case of `CCCCCCCCCCCCOS(=O)(=O)[O-].[Na+]` [sodium lauryl sulfate], the crystallinity is reported as 32%.
